{"source": "patent US20130244875A1", "about": "“METHODS AND COMPOSITIONS FOR IMPROVING PLANT HEALTH” (priority 2006, published 2013)", "key": {"[1]": {"tested_on": "PR-2, i.e., β-1,3-glucanase", "assay": "Induction of PR2 (northern blot) in DMO soybean sprayed with dicamba or DCSA", "assay_type": "in vivo", "details": "two transgenic soybean lines; 0.25, 0.5 and 1 lb/Acre; 24 hrs after treatment; no induction in untreated or water only", "method": "A 14 hour minimum photoperiod was provided with supplemental light at about 600 μE (micro-Einsteins) as needed. Trials were established in a randomized block design randomized by rate with 4 to 6 replications of each treatment.\nAll herbicide applications were made with the track sprayer using a Teejet® 9501E flat fan nozzle (Spraying Systems Co, Wheaton, Ill.) with air pressure set at a minimum of 24 psi (pounds per square inch), or 165 kpa (kilopascals)). The spray nozzle was kept at a height of about 16 inches above the top of plant material for spraying. The spray volume was 10 gallons per acre or 93 liters per hectare. Applications were made when plants had reached V-3 stage.\nEvents carrying a DMO transgene in their genome were grown and treated with dicamba (Clarity®, BASF) at 1 lb/Acre at Post-V3 stage. Leaf samples were harvested after 0, 3, 8, 24, 48, 72 hrs after treatment (HAT) and frozen for further analysis. In another experiment, DMO-containing plants were sprayed with either dicamba or DCSA at 0.25, 0.5 and 1 lb/Acre rate and tissue samples were collected 24 HAT. RNA was extracted and analyzed by northern blot analysis using PR-2, i.e., β-1,3-glucanase as a probe. PR-2 is a pathogenesis-related protein known to degrade […] and thus provide protection against fungal pathogens (U.S. Pat. No. 5,670,706 and Uknes et al., 1992)."}, "[2]": {"tested_on": "PR5", "assay": "Induction of PR5 (northern blot) by dicamba or DCSA", "assay_type": "in vivo, soybean", "details": "probe specific to PR5; procedures as for PR2"}, "[3]": {"tested_on": "Pythium ultimum", "assay": "Pythium ultimum inoculation of cotton seedlings after spray", "assay_type": "in vivo", "details": "same conditions kill plants not contacted with 3,6-DCSA", "method": "Ten-day old Roundup Ready® Flex Cotton (Event MON 88913; U.S. Publ. 20060059590) seedlings were sprayed with a mixture of Roundup Weather Max® (Monsanto Company, St. Louis, Mo.) and 3,6-DCSA (BASF). The control plants were sprayed with water only. The cotton seedlings from both treatments were inoculated with Pythium ultimum by dipping seedling into inoculum slurry, 24 hours after the spray application. The positive control plants were neither sprayed nor inoculated with P. ultimum. […] Cotton plants treated with Roundup® and DCSA were as healthy as were the plants not inoculated with P. ultimum."}, "[4]": {"tested_on": "Verticillium (isolate DPL)", "assay": "Verticillium wilt protection in cotton, isolate DPL", "assay_type": "in vivo, Verticillium dahliae", "details": "cotton ST6611, DCSA 1 lb/A, glyphosate 0.75 lb/A, 24 hours before inoculation", "source_text": "(§1) DCSA was unexpectedly found to provide protection to cotton plants against Verticillium dahliae, causal agent of cotton wilt disease (Table 6). Cotton plants of the variety ST6611, BOLLGARD 2, ROUNDUP READY FLEX, were inoculated with a moderate isolate (DPL) or a virulent isolate (King) of Verticillium by a seedling dipping method. Seedlings at the first true leaf stage were taken out from the pots, one inch of roots were cut off, seedlings were dipped in a spore slurry for one minute, and then transplanted back in the pots. These strains were isolated and provided by Dr. Terry Wheeler (Texas A&M University, TX USA). DCSA was applied at the rate of 1 lb/A and glyphosate (ROUNDUP WEATHERMAX, Monsanto Company, St. Louis, Mo.) at the rate of 0.75 lb/A 24 hours before inoculation. Protection against Verticillium was measured on a disease severity scale of 1-9:1 being healthy and 9 being dead because of disease, and also was measured as the number of plants that survived out of 10 inoculated plants."}, "[5]": {"tested_on": "Verticillium (isolate King)", "assay": "Verticillium wilt protection in cotton, isolate King", "assay_type": "in vivo, Verticillium dahliae", "details": "cotton ST6611, DCSA 1 lb/A, glyphosate 0.75 lb/A, 24 hours before inoculation", "source_text": "as §1"}, "[6]": {"tested_on": "wheat seed (spring wheat variety)", "assay": "Wheat seed germination in DCSA solution", "assay_type": "in vivo", "set-up": "key: 1—low; 2—moderate; 3—high; 3+—exceptionally high", "details": "22° C., 2DAT, water 1", "method": "Wheat seed (spring wheat variety) was germinated in a solution of 0.1, 1, 10, 100, or 1000 μM DCSA or water at 22° C. and rated 2 DAT for germination using the same rating scale as used for soybean."}, "[7]": {"tested_on": "soybean plants", "assay": "AMPA induced yellow flash in soybean", "assay_type": "in vivo", "details": "8DAT, scale 1-3, surfactant alone 2.7", "method": "Yellow flash is a symptom sometimes observed in glyphosate tolerant soybeans treated with glyphosate due to the formation of AMPA (aminomethyl phosphonic acid). A study was conducted to determine if DCSA treatment would protect soybean plants from AMPA induced yellow flash symptoms. Soybean plants were grown to V1-2 growth stage and divided into 3 treatment groups, 3 pots of plants per treatment. The treatments were 0.5 lb/A DCSA, 1.0 lb/A DCSA or surfactant alone. One day after treatment, all of the plants were sprayed with 1 lb/A of AMPA (Sigma Aldrich, St. Louis, Mo.) in surfactant. […] In an aspect of the present invention, a tolerance to yellow flash is provided due to improved plant health by DCSA applied to a plant in need of yellow flash tolerance or DCSA produced in vivo by the action of DMO on dicamba in transgenic plants comprising a DMO transgene."}, "[8]": {"tested_on": "soybean plants", "assay": "Copper injury on soybeans", "assay_type": "in vivo", "details": "DCSA 0.5 lb/A as tank mix or pretreatment 1 hr or 24 hr before 1000 ppm copper; reduced from 45%", "source_text": "Plants are sensitive to heavy metal toxicity. Heavy metals are present in the environment or sometimes applied to plants for pest control. Symptoms of plant injury following treatment with a heavy metal compound, for example, a compound containing copper, are necrotic leaf spotting and flecking with more severe injury resulting in larger reddish brown spots, […] necrosis and/or necrotic puckered leaves."}}}
{"molecule": "O=C(O)c1c(Cl)ccc(Cl)c1O", "note": "[DCSA, 3,6-dichloro salicylic acid]", "values": [{"measurement": "induction of PR2 at various rates", "setting": "[1]", "value": "induction of PR2"}, {"measurement": "induction of PR5", "setting": "[2]", "value": "Induction of PR5"}, {"measurement": "survival of cotton plants after inoculation with Pythium ultimum", "setting": "[3]", "value": "survive inoculation"}, {"measurement": "Severity rating (1-9)", "setting": "[4]; 1 healthy, 9 dead, inoculated check 5", "value": 1}, {"measurement": "Plant survival rating (out of 10)", "setting": "[4]; inoculated check 8", "value": 10}, {"measurement": "Severity rating (1-9)", "setting": "[5]; 1 healthy, 9 dead, inoculated check 9", "value": 2}, {"measurement": "Plant survival rating (out of 10)", "setting": "[5]; inoculated check 0", "value": 10}, {"measurement": "germination rating", "setting": "[6]; 0.1 μM DCSA", "value": 1}, {"measurement": "germination rating", "setting": "[6]; 1 μM DCSA", "value": 1}, {"measurement": "germination rating", "setting": "[6]; 10 μM DCSA", "value": 3}, {"measurement": "germination rating", "setting": "[6]; 100 μM DCSA", "value": 2}, {"measurement": "germination rating", "setting": "[6]; 1000 μM DCSA", "value": 3}, {"measurement": "Average symptoms", "setting": "[7]; 0.5 lb/A DCSA one day before 1 lb/A AMPA", "value": 3}, {"measurement": "Average symptoms", "setting": "[7]; 1.0 lb/A DCSA one day before 1 lb/A AMPA", "value": 1.7}, {"measurement": "Soybean injury levels", "setting": "[8]", "value": "24-33%"}]}
